The record followed here is PubChem BioAssay AID686920 (Broad Institute, 2013).

In this test the test system is A673 NR0B1-luciferase reporter, viability-normalised luminescence. Put plainly: NR0B1 reporter signal reduction in A673 cells – cell-based, luciferase luminescence, cherry-pick, EWS/Fli inhibitor project, dose response (AID 686920).

For the molecule `C[C@H](CO)N1C[C@H](C)[C@@H](CN(C)Cc2ccc(Oc3ccccc3)cc2)Oc2ccc(NS(=O)(=O)c3ccc(Cl)cc3)cc2CC1=O`, the AC35 was 22.8 µM.
The result for `C[C@@H]1CN([C@H](C)CO)C(=O)c2cc(C#CCN(C)C)cnc2O[C@H]1CN(C)Cc1ccc(-c2ccccc2)cc1` reads 10.9 µM.
The result for `CC(=O)c1ccc(NC(=O)c2noc3c2CCC3)cc1` reads 3.06 µM.
The result for `O=C1NC2C(=CC(O)C(O)C2O)c2cc3c(cc21)OCO3` (stereo not drawn) reads 0.429 µM; that for `CC(=NNc1ccc2ccccc2n1)c1ccccn1`, 0.597 µM; that for `COc1cc(C(=O)N2CCC(N3CCN(C)CC3)CC2)ccc1Nc1ncc2c(n1)N(C)c1ccccc1C(=O)N2C`, 4.75 µM.
Consider `CC(C)(C)C(=O)Cn1ncc(Cl)c(Cl)c1=O`, for which the AC35 is 12.9 µM.
As to `O=C(CCCN1C(=O)/C(=C/c2ccccc2Cl)SC1=S)NNC(=O)c1ccc(Cl)cc1Cl`, the AC35 is 3.4 µM.
The result for `N/C(=C\C(=O)c1cc(Cl)ccc1O)C(Cl)(Cl)Cl` reads 4.64 µM.
With `N#C[C@H]1N[C@H](CO)[C@H]1c1ccc(C#Cc2ccc(F)cc2)cc1`, the AC35 is 0.123 µM.
As for `COc1ccc(Nc2oc(COc3ccccc3OC)nc2C#N)cc1`, the figure is 6.24 µM; as for `COc1ccc(OC)c(/C=C/c2ccnc3ccccc23)c1`, 2.4 µM; as for `CCCCCCCCCCCCCCCCn1cc[n+](C)c1`, 10.3 µM.
The result for `O=C1c2ccccc2C(=O)c2cc(N3CCCCC3)ccc21` reads 2.65 µM.
As for `OC[C@H]1O[C@@H](n2cnc3c(NCc4ccco4)ncnc32)[C@H](O)[C@@H]1O`, the figure is 4.99 µM.
Turning to `Nc1ccc2oc(-c3cc(Br)ccc3Cl)nc2c1`, the AC35 is 15 µM.
As to `CCOc1cc(N2CCC(O)CC2)ccc1Nc1ncc2c(n1)N(C)c1ccccc1C(=O)N2C`, the AC35 is 2.01 µM.
Turning to `CC1=NC(=O)C(N=Nc2cccc(C(=O)O)c2)N1c1ccccc1` (stereo not drawn), the AC35 was 6.99 µM.
The result for `NC1=CC(=O)C(=O)c2cccnc21` reads 14 µM; that for `Cc1ccc(C(=O)O/N=C(\N)c2ccccn2)cc1`, 9.92 µM; that for `C[C@]12CCC3C(CCC4=CC(O)CC[C@@]43/C=N/O)C1(O)CCC2C1=CC(=O)OC1` (stereo partly drawn), 0.529 µM.
As for `CC(=O)OC1CC2(O)C3CCC4CC(O)CCC4(C)C3CCC2(C)C1C1=CC(=O)OC1` (stereo not drawn), the figure is 0.231 µM; as for `CCc1ccc(N2C=C(C(=O)OC)C(c3ccc(OC)cc3)C(C#N)=C2N)cc1` (stereo not drawn), 5.38 µM; as for `C(=N\Nc1ccc2ccccc2n1)/c1ccc2c(c1)OCCO2`, 0.728 µM.
As for `CC1=NN(c2ccccc2)C(=O)/C1=C\C=C\c1ccccc1`, the AC35 was 6.98 µM.
The result for `Cc1cc2c(C(C)C)c(O)c(O)c(C=O)c2c(O)c1-c1c(C)cc2c(C(C)C)c(O)c(O)c(C=O)c2c1O` reads 7.16 µM; that for `O=C(C[C@@H]1C[C@H]2c3cc(NC(=O)CC4CC4)ccc3O[C@H]2[C@H](CO)O1)NCc1ccccc1F`, 40.3 µM.
The result for `O=C1Nc2cc(C(=O)NCCN3CCCCCC3)ccc2S/C1=C\c1ccccc1` reads 11.6 µM.
Take `COc1ccc(CN(C)c2ncnc3sccc23)c(OC)c1OC`: the AC35 is 10.7 µM.
As for `O=c1c2ccccc2oc2cc(C#CC3(O)CCCCC3)ccc12`, the figure is 4.33 µM; as for `Nc1nc(N)c2cc(Sc3ccc4ccccc4c3)ccc2n1`, 2.1 µM; as for `CCCNC(=O)N1[C@H](C#N)[C@H](c2ccc(C#Cc3ccc(F)cc3)cc2)[C@H]1CO`, 10.1 µM.
As for `CCCNC(=O)N1[C@H](C#N)[C@H](c2ccc(C#Cc3cccc(F)c3)cc2)[C@H]1CO`, the figure is 8.47 µM.
The result for `Cc1cccc(NC(=O)CN2CCN(C(=O)CNC(=O)c3ccc(-c4ccccc4)cc3)CC2)c1C` reads 8.14 µM; that for `CCc1ccc(/C=C2\SC(=S)N(CCC(=O)Nc3cc(C)on3)C2=O)cc1`, 6.38 µM.
For `CC(C)(C)c1ccc(Oc2ccc(NC(=O)c3ccccc3C(=O)O)cn2)cc1`, the AC35 is 5.78 µM.
As for `CCOc1ccc(N=C2C(=O)Nc3ccc(C)c(Br)c32)cc1`, the figure is 26.4 µM; as for `C(=N\Nc1ccc2ccccc2n1)/c1ccc2c(c1)OCO2`, 5.76 µM.
The result for `CCCCc1c(-c2ccccc2OC)ncn1Cc1ccc(C(C)(C)C)cc1` reads 10 µM; that for `C[C@@H]1CN([C@H](C)CO)C(=O)c2cc(NC(=O)Nc3ccccc3)ccc2O[C@@H]1CN(C)Cc1ccc(C(=O)Nc2ccccc2N)cc1`, 8.74 µM.
As for `CC(C)c1ccccc1NC(=O)COC(=O)CCN1C(=O)/C(=C\C=C\c2ccccc2)SC1=S`, the figure is 1.9 µM; as for `CC(C)(C)c1ccc(Oc2ccc(NC(=O)C3CC=CCC3C(=O)O)cc2)cc1` (stereo not drawn), 40.5 µM; as for `C[C@@H]1CN([C@@H](C)CO)C(=O)c2cc(NC(=O)c3ccccc3)ccc2O[C@@H](C)CCCCO[C@H]1CN(C)C(=O)Nc1cccc2ccccc12`, 0.873 µM.
For `CCCC[C@@H]1Cc2[nH][nH]c(=O)c2[C@H](c2ccc3ccccc3c2)O1`, the AC35 is 11.8 µM.
As for `C[C@@H]1CCCCO[C@@H](CN(C)C(=O)Cc2ccccc2)[C@@H](C)CN([C@@H](C)CO)C(=O)c2cc(NS(=O)(=O)c3ccc(F)cc3)ccc2O1`, the figure is 43.9 µM; as for `C/C(=N\Nc1cccc2cccnc12)c1ccccn1`, 19 µM.
The result for `C=C1C(=O)OC2C1CCC(C)C1C=CC(=O)C12C` (stereo not drawn) reads 15.5 µM; that for `c1ccc(Nc2nnc(-c3ccc4c(c3)OCO4)o2)cc1`, 3.06 µM; that for `Cc1c(-c2nc(-c3ccc(C(C)(C)C)cc3)no2)n(C)oc1=O`, 35.5 µM.
The result for `N#C[C@H]1[C@H](c2ccc(-c3ccccc3F)cc2)[C@@H](CO)N1C(=O)c1ccccn1` reads 9.49 µM; that for `CC1=NN(c2ccc(C)cc2)C(=O)/C1=C\C=C\c1ccccc1`, 10.2 µM; that for `COc1ccc(/C=C/C(=O)c2ccc(C(=O)/C=C/c3ccc(OC)c(OC)c3)cc2)cc1OC`, 6.78 µM.
As for `CC(C)(C)[S@](=O)N1Cc2cc(C(=O)NCC(F)(F)F)nc(-c3cccc(-c4cccc(F)c4)c3)c2[C@@H]1CCO`, the AC35 is 18.9 µM.
For `CN1C(=O)c2cc(NC(=O)c3ccc(C(F)(F)F)cc3)ccc2OC[C@@H]2O[C@@H](CC(=O)NC3Cc4ccccc4C3)CC[C@H]21`, the AC35 was 8.33 µM.
As for `CN(C)c1ccc(-c2ccnc3c2CC(C)(C(=O)NCc2ccco2)O3)cc1` (stereo not drawn), the figure is 6.85 µM.
As for `COc1ccc(C=C2CCc3ccccc3C2=O)cc1`, the figure is 10.4 µM; as for `COc1ccc(CNc2ncc(-c3ccc(F)cc3)n2C)c2ccccc12`, 6.93 µM; as for `COc1cc2c(cc1NC(=O)CN(C)Cc1ccc(OC)c(OC)c1)oc1ccccc12`, 8.33 µM.
As for `CCc1cccc2c(C(=O)CN3C(=O)NC4(CCCCC4)C3=O)c[nH]c12`, the figure is 14.1 µM; as for `C[C@@H]1CN([C@@H](C)CO)C(=O)Cc2cc(NS(=O)(=O)c3cccs3)ccc2O[C@H]1CN(C)Cc1ccc(Cl)c(Cl)c1`, 3.76 µM.
With `CCOC(=O)[C@]12Cc3ccc(C)cc3[C@H]1N(C1CCCCC1)C(=O)c1ccccc12`, the AC35 was 5.49 µM.
As for `CC[C@@H]1C[C@H]2CC[C@H](O2)[C@H](C)C(=O)O[C@@H](C)C[C@@H]2CC[C@@H](O2)[C@@H](C)C(=O)O[C@H](C)C[C@H]2CC[C@H](O2)[C@H](C)C(=O)O[C@@H](C)C[C@@H]2CC[C@@H](O2)[C@@H](C)C(=O)O1`, the figure is 0.0992 µM; as for `Cc1ccc(C(=O)CN2C(=O)c3ccccc3S2(=O)=O)cc1`, 1.97 µM.
